Laboratory results taken from publication PMC11110763, “Carltonine-derived compounds for targeted butyrylcholinesterase inhibition” (RSC Medicinal Chemistry, 2024).

Molecular target: T1, recombinant BChE (hBChE, E.C. 3.1.1.8) (Homo sapiens, UniProt P06276)
T1 construct: purchased Sigma-Aldrich, Prague, Czech Republic
Assay: biochemical
Format: biochemical
Conditions: for IC50: mean ± SEM of three independent measurements, each in triplicate; for inhibition at 10 µM: tested at 10 μM compound concentration, read-out: % inhibition of hBChE ± SEM
Protocol: The activities of hAChE and hBChE were determined using a modified Ellman's method, as described in ref. [56] and [62] against recombinant AChE (hAChE, E.C. 3.1.1.7) and recombinant BChE (hBChE, E.C. 3.1.1.8), both of which were purchased from Sigma-Aldrich, Prague, Czech Republic. […] The other compounds used, including the phosphate buffer solution (PBS, pH = 7.4), 5,5′-dithio-bis(2-nitrobenzoic) acid (Ellman's reagent, DTNB), acetylthiocholine (ATChI), and butyrylthiocholine (BTChI), were commercially available and purchased from Sigma-Aldrich in Prague, Czech Republic. In brief, the corresponding enzyme (8.3 μL), 5 mM DTNB (283 μL), and the sample dilution in dimethyl sulfoxide (DMSO) at various concentrations (8.3 μL) were added to 96-well microplates (BRAND GMBH + CO KG, Wertheim, Germany) and pre-incubated for 5 minutes in the assay medium. The reaction was initiated by adding 10 mM substrate (ATChI or BTChI, 33.3 μL). […] Each measurement was repeated in triplicate. The percentage of inhibition was calculated using the following formula: [drawing 8] where ΔABl represents the increase in absorbance of the blank sample, and ΔASa represents the increase in absorbance of the measured sample. […] Microsoft Excel (Redmond, WA, USA) and GraphPad Prism version 7 for Windows (GraphPad Software, San Diego, CA, USA) were used for the statistical data evaluation.

T1 sequence (P06276 29-602): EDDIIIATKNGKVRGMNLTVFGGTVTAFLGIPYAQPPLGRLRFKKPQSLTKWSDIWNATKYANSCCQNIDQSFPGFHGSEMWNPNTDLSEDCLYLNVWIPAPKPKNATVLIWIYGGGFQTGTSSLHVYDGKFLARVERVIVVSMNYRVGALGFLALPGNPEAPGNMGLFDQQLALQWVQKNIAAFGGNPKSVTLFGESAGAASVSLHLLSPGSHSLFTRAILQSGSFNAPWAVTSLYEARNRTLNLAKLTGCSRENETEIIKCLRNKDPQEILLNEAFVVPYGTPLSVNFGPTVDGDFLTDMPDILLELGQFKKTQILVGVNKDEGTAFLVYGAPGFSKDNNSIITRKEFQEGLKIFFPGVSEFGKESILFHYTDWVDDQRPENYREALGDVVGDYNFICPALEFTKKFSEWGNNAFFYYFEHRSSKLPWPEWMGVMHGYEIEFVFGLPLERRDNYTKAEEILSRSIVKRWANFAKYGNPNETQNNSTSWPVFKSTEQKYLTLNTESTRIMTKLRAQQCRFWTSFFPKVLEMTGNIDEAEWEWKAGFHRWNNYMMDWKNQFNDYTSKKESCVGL

SMILES | IC50 [nM] | inhibition at 10 µM [%] | hBChE inhibitory activity (in words)
COc1cccc(CCNCc2cccc(OCc3ccccc3)c2)c1 [Compound 6, {[3-(Benzyloxy)phenyl]methyl}[2-(3-methoxyphenyl)ethyl]amine] | 2700 ± 200 | 78 ± 0.4 | 
COc1ccc(CCNCc2cccc(OCc3ccccc3)c2)cc1 [Compound 7, {[3-(Benzyloxy)phenyl]methyl}[2-(4-methoxyphenyl)ethyl]amine] | 4800 ± 200 | 73 ± 0.6 | 
C=CCN(CCc1ccc(O)cc1)Cc1cccc(OCc2ccccc2)c1 [Compound 8, 4-[2-({[3-(Benzyloxy)phenyl]methyl}(prop-2-en-1-yl)amino)ethyl]phenol] | 600 ± 100 | 92 ± 0.5 | 
C=CCOc1ccc(CCN(CC=C)Cc2cccc(OCc3ccccc3)c2)cc1 [Compound 9, {[3-(Benzyloxy)phenyl]methyl}(prop-2-en-1-yl){2-[4-(prop-2-en-1-yloxy)phenyl]ethyl}amine] | > 10000 | 46 ± 1.7 | complete loss of hBChE inhibitory activity
C=CCOc1ccc(CCNCc2cccc(OCc3ccccc3)c2)cc1 [Compound 12, {[3-(Benzyloxy)phenyl]methyl}({2-[4-(prop-2-en-1-yloxy)phenyl]ethyl})amine] | 4000 ± 1000 | 75.5 ± 0.5 | 
Clc1cccc(NCc2cccc(OCc3ccccc3)c2)c1 [Compound 13, N-{[3-(Benzyloxy)phenyl]methyl}-3-chloroaniline] | > 10000 | 7.5 ± 0.4 | completely inactive
COc1ccc(CNCc2cccc(OCc3ccccc3)c2)cc1OC [Compound 15, {[3-(Benzyloxy)phenyl]methyl}[(3,4-dimethoxyphenyl)methyl]amine] | > 10000 | 49 ± 1.4 | completely inactive
c1ccc(CCNCc2cccc(OCc3ccccc3)c2)cc1 [Compound 16, {[3-(Benzyloxy)phenyl]methyl}(2-phenylethyl)amine] | 600 ± 100 | 91 ± 0.9 | 
c1ccc(CCCNCc2cccc(OCc3ccccc3)c2)cc1 [Compound 17, {[3-(Benzyloxy)phenyl]methyl}(3-phenylpropyl)amine] | 600 ± 100 | 89 ± 1.8 | 
C=CCN(Cc1ccccc1)Cc1cccc(OCc2ccccc2)c1 [Compound 20, Benzyl({[3-(benzyloxy)phenyl]methyl})(prop-2-en-1-yl)amine] | > 10000 | 36 ± 0.8 | 
CCCN(CCc1ccccc1)Cc1cccc(OCc2ccccc2)c1 [Compound 22, {[3-(Benzyloxy)phenyl]methyl}(2-phenylethyl)propylamine] | 700 ± 100 | 81 ± 0.8 | 
C=CCN(CCc1ccccc1)Cc1cccc(OCc2ccccc2)c1 [Compound 23, {[3-(Benzyloxy)phenyl]methyl}(2-phenylethyl)(prop-2-en-1-yl)amine] | 7700 ± 1700 | 60 ± 0.4 | 
CCN(CCCc1ccccc1)Cc1cccc(OCc2ccccc2)c1 [Compound 24, {[3-(Benzyloxy)phenyl]methyl}(ethyl)(3-phenylpropyl)amine] | 600 ± 100 | 94 ± 0.6 | 
C=CCN(CCCc1ccccc1)Cc1cccc(OCc2ccccc2)c1 [Compound 26, {[3-(Benzyloxy)phenyl]methyl}(3-phenylpropyl)(prop-2-en-1-yl)amine] | 1200 ± 300 | 76 ± 1.7 | 
COc1ccccc1CCNCc1ccc(OCc2ccccc2)cc1 [Compound 29, {[4-(Benzyloxy)phenyl]methyl}[2-(2-methoxyphenyl)ethyl]amine] | 800 ± 200 | 89 ± 0.9 | 
COc1cccc(CCNCc2ccc(OCc3ccccc3)cc2)c1 [Compound 30, {[4-(Benzyloxy)phenyl]methyl}[2-(3-methoxyphenyl)ethyl]amine] | 4900 ± 1000 | 66 ± 0.1 | 
COc1ccc(CCNCc2ccc(OCc3ccccc3)cc2)cc1 [Compound 31, {[4-(Benzyloxy)phenyl]methyl}[2-(4-methoxyphenyl)ethyl]amine] | 3000 ± 600 | 93 ± 0.2 | 
